We go through 28 molecules from patent publication US12011444B2, “N-substituted indole derivatives as PGE2 receptor modulators” (Idorsia Pharmaceuticals Ltd, priority 2015, dated 2024).

One assay has as its target PTRGER4 (EP4) (Homo sapiens (Human), UniProt P35408). The assay is described as follows: hEP4 b-arrestin assay (PathHunter HEK 293 PTGER4 b-arrestin cells). Format: cell-based. The settings on record: hEP4 b-arrestin assay (values without asterisk). The method in brief:
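Antagonist mode: compound is given 15 min at 37 °C, then 20 nM (final) PGE2 for 120 min, in HEK293 cells stably expressing EP4 fused to ProLink and β-arrestin 2 fused to EA. Recruitment read as β-gal luminescence after 1 h reagent at room temperature, as percent of DMSO control.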

A further assay has as its target PTGER2 (EP2) (Homo sapiens (Human), UniProt P43116). The assay is described as follows: hEP2 b-arrestin assay (PathHunter HEK 293 PTGER2 b-arrestin cells). Conditions: hEP2 b-arrestin assay (values without asterisk). Format: cell-based. The method in brief: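 Readout is β-galactosidase complementation luminescence, expressed as percent of DMSO control (duplicates). PathHunter HEK293 EP2/β-arrestin 2 cells, grown 24 h, received compound for 15 min at 37 °C before a 120 min challenge with PGE2 at 5 μM final, followed by 1 h detection at room temperature.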

The structures appear in SMILES notation.

PTRGER4 (EP4), sequence (P35408 whole entry, looked up, the tested form may be a part): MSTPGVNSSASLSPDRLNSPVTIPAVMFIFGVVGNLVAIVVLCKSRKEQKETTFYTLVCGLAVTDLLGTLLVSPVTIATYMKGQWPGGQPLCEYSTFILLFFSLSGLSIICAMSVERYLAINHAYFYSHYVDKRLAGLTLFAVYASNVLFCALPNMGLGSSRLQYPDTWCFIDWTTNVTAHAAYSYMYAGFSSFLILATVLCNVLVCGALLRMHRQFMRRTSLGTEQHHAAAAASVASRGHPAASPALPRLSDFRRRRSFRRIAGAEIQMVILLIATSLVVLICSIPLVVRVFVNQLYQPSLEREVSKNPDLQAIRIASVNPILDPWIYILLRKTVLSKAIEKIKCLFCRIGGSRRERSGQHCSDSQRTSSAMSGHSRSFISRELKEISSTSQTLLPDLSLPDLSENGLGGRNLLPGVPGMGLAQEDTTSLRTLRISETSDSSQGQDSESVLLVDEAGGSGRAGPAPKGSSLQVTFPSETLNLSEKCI
PTGER2 (EP2), sequence (P43116 whole entry): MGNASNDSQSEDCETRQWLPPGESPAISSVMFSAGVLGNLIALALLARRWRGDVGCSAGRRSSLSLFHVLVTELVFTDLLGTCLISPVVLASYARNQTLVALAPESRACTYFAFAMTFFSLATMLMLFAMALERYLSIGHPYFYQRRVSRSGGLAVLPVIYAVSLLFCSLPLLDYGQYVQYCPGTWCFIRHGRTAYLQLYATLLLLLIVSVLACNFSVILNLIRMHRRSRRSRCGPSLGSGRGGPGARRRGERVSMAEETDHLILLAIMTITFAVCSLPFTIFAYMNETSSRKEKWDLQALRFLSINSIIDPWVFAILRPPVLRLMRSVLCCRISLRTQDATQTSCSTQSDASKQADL

By IC50 is commonly meant the concentration that gives 50% inhibition. Higher therefore signals weaker potency. `COc1ccc(F)c2c1cc(C)n2CCNc1cc(-c2ccc(C(=O)O)c(C#N)c2)ncn1` [Example 888, 2-Cyano-4-{6-[2-(7-fluoro-4-methoxy-2-methyl-indol-1-yl)-ethylamino]-pyrimidin-4-yl}-benzoic acid]: the IC50 against PTRGER4 (EP4) was determined as 472 nM; on PTGER2 (EP2) it was 41 nM.

`CCOc1cc(-c2cc(NCCn3c(C#N)cc4c(Cl)cc(Cl)cc43)ncn2)sc1C(=O)O` [Example 889, 5-{6-[2-(4,6-Dichloro-2-cyano-indol-1-yl)-ethylamino]-pyrimidin-4-yl}-3-ethoxy-thiophene-2-carboxylic acid]: the results for the IC50 on PTRGER4 (EP4) and on PTGER2 (EP2) were 35 nM and 1 nM, respectively.

As for `CCOc1cc(-c2cc(NCCn3c(C#N)cc4c(C)c(F)c(F)cc43)ncn2)sc1C(=O)O` [Example 890, 5-{6-[2-(2-Cyano-5,6-difluoro-4-methyl-indol-1-yl)-ethylamino]-pyrimidin-4-yl}-3-ethoxy-thiophene-2-carboxylic acid], the results for the IC50 against PTRGER4 (EP4) and against PTGER2 (EP2) were 23 nM and 2 nM, respectively.

On to `CCOc1cc(-c2cc(NCCn3c(C#N)cc4c(C)ccc(F)c43)ncn2)sc1C(=O)O` [Example 891, 5-{6-[2-(2-Cyano-7-fluoro-4-methyl-indol-1-yl)-ethylamino]-pyrimidin-4-yl}-3-ethoxy-thiophene-2-carboxylic acid], for which the IC50 against PTRGER4 (EP4) was determined as 3 nM; on PTGER2 (EP2), 6 nM.

For the molecule `CCOc1cc(-c2cc(NCCn3c(C#N)cc4cccc(F)c43)ncn2)sc1C(=O)O` [Example 892, 5-{6-[2-(2-Cyano-7-fluoro-indol-1-yl)-ethylamino]-pyrimidin-4-yl}-3-ethoxy-thiophene-2-carboxylic acid], the values for the IC50 against PTRGER4 (EP4) and at PTGER2 (EP2) were 24 nM and 1 nM, respectively.

Consider `CCOc1cc(-c2cc(NCCn3c(C#N)cc4c(C)c(F)c(F)cc43)ncn2)ccc1OCC(=O)O` [Example 893, (4-{6-[2-(2-Cyano-5,6-difluoro-4-methyl-indol-1-yl)-ethylamino]-pyrimidin-4-yl}-2-ethoxy-phenoxy)-acetic acid], for which the IC50 against PTRGER4 (EP4) was determined as 118 nM; against PTGER2 (EP2) it was 42 nM.

With `CCOc1cc(-c2cc(NCCn3c(C#N)cc4c(C)c(F)c(F)cc43)ncn2)ccc1NCC(=O)O` [Example 895, (4-{6-[2-(2-Cyano-5,6-difluoro-4-methyl-indol-1-yl)-ethylamino]-pyrimidin-4-yl}-2-ethoxy-phenylamino)-acetic acid], the half-inhibitory concentration (IC50) is 66 nM against PTRGER4 (EP4) and 20 nM against PTGER2 (EP2).

As for `CCOc1cc(-c2cc(NCCn3c(C#N)cc4cccc(F)c43)ncn2)ccc1NCC(=O)O` [Example 896, (4-{6-[2-(2-Cyano-7-fluoro-indol-1-yl)-ethylamino]-pyrimidin-4-yl}-2-ethoxy-phenylamino)-acetic acid], the IC50 stood at 34 nM at PTRGER4 (EP4) and 2 nM at PTGER2 (EP2).

As for `CCOC(=O)Cc1ccc(-c2cc(NCCn3c(C)cc4c(OC)ccc(F)c43)ncn2)cc1` [Example 897, (4-{6-[2-(7-Fluoro-4-methoxy-2-methyl-indol-1-yl)-ethylamino]-pyrimidin-4-yl}-phenyl)-acetic acid ethyl ester], the IC50 worked out at 453 nM on PTRGER4 (EP4) and 380 nM at PTGER2 (EP2).

As for `COc1cc(-c2cc(NCCn3c(C#N)cc4c(OC)ccc(F)c43)ncn2)ccn1` [Example 898, 7-Fluoro-4-methoxy-1-{2-[6-(2-methoxy-pyridin-4-yl)-pyrimidin-4-ylamino]-ethyl}-1H-indole-2-carbonitrile], the IC50 worked out at 123 nM against PTRGER4 (EP4) and 41 nM against PTGER2 (EP2).

Turning to `CCOc1cc(-c2cc(NCCn3c(C#N)cc4c(OC)ccc(F)c43)ncn2)ccc1O` [Example 899, 1-{2-[6-(3-Ethoxy-4-hydroxy-phenyl)-pyrimidin-4-ylamino]-ethyl)-7-fluoro-4-methoxy-1H-indole-2-carbonitrile], the values for the IC50 at PTRGER4 (EP4) and at PTGER2 (EP2) were 16 nM and 5 nM, respectively.

In the case of `COc1ccc(F)c2c1cc(C#N)n2CCNc1cc(-c2ccc(C(N)=O)s2)ncn1` [Example 900, 5-{6-[2-(2-Cyano-7-fluoro-4-methoxy-indol-1-yl)-ethylamino]-pyrimidin-4-yl)-thiophene-2-carboxylic acid amide], the values for the IC50 on PTRGER4 (EP4) and on PTGER2 (EP2) were 22 nM and 26 nM, respectively.

For `N#Cc1cc2cccc(F)c2n1CCNc1cc(-c2cc(F)c(C(=O)O)s2)ncn1` [Example 901, 5-{6-[2-(2-Cyano-7-fluoro-indol-1-yl)-ethylamino]-pyrimidin-4-yl}-3-fluoro-thiophene-2-carboxylic acid], the IC50 at PTRGER4 (EP4) amounted to 76 nM; against PTGER2 (EP2) it was 7 nM.

Take `COc1cccc2c1cc(C#N)n2CCNc1cc(-c2cc(F)c(C(=O)O)s2)ncn1` [Example 902, 5-{6-[2-(2-Cyano-4-methoxy-indol-1-yl)-ethylamino]-pyrimidin-4-yl}-3-fluoro-thiophene-2-carboxylic acid]: the IC50 was determined as 8 nM on PTRGER4 (EP4) and 3 nM on PTGER2 (EP2).

Turning to `N#Cc1cc2c(Cl)cccc2n1CCNc1cc(-c2cc(F)c(C(=O)O)s2)ncn1` [Example 903, 5-{6-[2-(4-Chloro-2-cyano-indol-1-yl)-ethylamino]-pyrimidin-4-yl}-3-fluoro-thiophene-2-carboxylic acid], the IC50 against PTRGER4 (EP4) is 69 nM; against PTGER2 (EP2), 4 nM.

As for `N#Cc1cc2c(Cl)cc(F)c(F)c2n1CCNc1cc(-c2cc(F)c(C(=O)O)s2)ncn1` [Example 904, 5-{6-[2-(4-Chloro-2-cyano-6,7-difluoro-indol-1-yl)-ethylamin0]-pyrimidin-4-yl}-3-fluoro-thiophene-2-carboxylic acid], the IC50 on PTRGER4 (EP4) was determined as 49 nM; at PTGER2 (EP2) it was 1 nM.

`CCCCOc1cc(-c2cc(NCCn3c(C#N)cc4c(OC)ccc(F)c43)ncn2)cc(F)c1C(=O)O` [Example 905, 2-Butoxy-4-{6-[2-(2-cyano-7-fluoro-4-methoxy-indol-1-yl)-ethylamino]-pyrimidin-4-yl}-6-fluoro-benzoic acid]: the IC50 against PTRGER4 (EP4) was 5 nM; at PTGER2 (EP2), 22 nM.

Regarding `CCCCOc1cc(-c2cc(NCCn3c(C#N)cc4c(OC)ccc(F)c43)ncn2)cc(Cl)c1C(=O)O` [Example 906, 2-Butoxy-6-chloro-4-{6-[2-(2-cyano-7-fluoro-4-methoxy-indol-1-yl)-ethylamino]-pyrimidin-4-yl}-benzoic acid], the IC50 against PTRGER4 (EP4) turned out to be 3 nM; against PTGER2 (EP2) it was 30 nM.

Turning to `CCCOc1cc(-c2cc(NCCn3c(C#N)cc4c(OC)ccc(F)c43)ncn2)cc(Cl)c1C(=O)O` [Example 907, 2-Chloro-4-{6-[2-(2-cyano-7-fluoro-4-methoxy-indol-1-yl)-ethylamino]-pyrimidin-4-yl}-6-propoxy-benzoic acid], the IC50 came out at 12 nM at PTRGER4 (EP4) and 24 nM against PTGER2 (EP2).

As for `CCCOc1cc(-c2cc(NCCn3c(C#N)cc4c(OC)ccc(F)c43)ncn2)cc(F)c1C(=O)O` [Example 908, 4-{6-[2-(2-Cyano-7-fluoro-4-methoxy-indol-1-yl)-ethylamino]-pyrimidin-4-yl}-2-fluoro-6-propoxy-benzoic acid], the results for the IC50 against PTRGER4 (EP4) and against PTGER2 (EP2) were 33 nM and 17 nM, respectively.

As to `CCOc1cc(-c2cc(NCCn3c(C#N)cc4c(Cl)cccc43)ncn2)sc1C(=O)O` [Example 909, 5-{6-[2-(4-Chloro-2-cyano-indol-1-yl)-ethylamino]-pyrimidin-4-yl}-3-ethoxy-thiophene-2-carboxylic acid], the figures for the IC50 against PTRGER4 (EP4) and against PTGER2 (EP2) were 14 nM and 3 nM, respectively.

In the case of `COc1cccc2c1cc(C#N)n2CCNc1cc(-c2cc(C(F)(F)F)c(C(=O)O)s2)ncn1` [Example 910, 5-{6-[2-(2-Cyano-4-methoxy-indol-1-yl)-ethylamino]-pyrimidin-4-yl}-3-trifluoromethyl-thiophene-2-carboxylic acid], the IC50 on PTRGER4 (EP4) was 10 nM; against PTGER2 (EP2) it was 23 nM.

Take `N#Cc1cc2c(Cl)cccc2n1CCNc1cc(-c2cc(C(F)(F)F)c(C(=O)O)s2)ncn1` [Example 911, 5-{6-[2-(4-Chloro-2-cyano-indol-1-yl)-ethylamino]-pyrimidin-4-yl}-3-trifluoromethyl-thiophene-2-carboxylic acid]: the results for the IC50 at PTRGER4 (EP4) and against PTGER2 (EP2) were 27 nM and 7 nM, respectively.

In the case of `N#Cc1cc2c(Cl)cc(F)c(F)c2n1CCNc1cc(-c2cc(C(F)(F)F)c(C(=O)O)s2)ncn1` [Example 912, 5-{6-[2-(4-Chloro-2-cyano-6,7-difluoro-indol-1-yl)-ethylamino]pyrimidin-4-yl}-3-trifluoromethyl-thiophene-2-carboxylic acid], the IC50 was 29 nM on PTRGER4 (EP4) and 4 nM against PTGER2 (EP2).

Regarding `COc1ccc(F)c2c1cc(C#N)n2CCNc1cc(-c2cc(Cl)c(C(=O)O)c(OCC(C)C)c2)ncn1` [Example 913, 2-Chloro-4-{6-[2-(2-cyano-7-fluoro-4-methoxy-indol-1-yl)-ethylamino]-pyrimidin-4-yl}-6-isobutoxy-benzoic acid], the IC50 against PTRGER4 (EP4) was found to be 5 nM; against PTGER2 (EP2), 13 nM.

`CCOc1cc(-c2cc(NCCn3c(C#N)cc4c(Cl)cc(F)c(F)c43)ncn2)ccc1OCC(=O)O` [Example 914, (4-{6-[2-(4-Chloro-2-cyano-6,7-difluoro-indol-1-yl)-ethylamino]-pyrimidin-4-yl}-2-ethoxy-phenoxy)-acetic acid]: the IC50 stood at 68 nM at PTRGER4 (EP4) and 32 nM on PTGER2 (EP2).

Take `CCOc1cc(-c2cc(NCCn3c(C#N)cc4c(Cl)cccc43)ncn2)ccc1NCC(=O)O` [Example 915, (4-{6-[2-(4-Chloro-2-cyano-indol-1-yl)-ethylamino]-pyrimidin-4-yl}-2-ethoxy-phenylamino)-acetic acid]: the IC50 was determined as 27 nM against PTRGER4 (EP4) and 12 nM against PTGER2 (EP2).

In the case of `CCOc1cc(-c2cc(NCCn3c(C#N)cc4c(Cl)cc(F)c(F)c43)ncn2)ccc1NCC(=O)O` [Example 916, (4-{6-[2-(4-Chloro-2-cyano-6,7-difluoro-indol-1-yl)-ethylamino]-pyrimidin-4-yl}-2-ethoxy-phenylamino)-acetic acid], the IC50 was determined as 18 nM at PTRGER4 (EP4) and 20 nM against PTGER2 (EP2).
